Test results published in US20220033364A1, “INSECTICIDAL COMPOUNDS” (SYNGENTA CROP PROTECTION AG, priority 2018, published 2022).

Columns and labels:
Type in all cases: in vivo
Diabrotica balteata = Diabrotica balteata (corn root worm) maize sprout spray test; details: 96 h, spray on maize sprouts, L2 larvae, 4 days after infestation, read-out: effect in at least one of the two categories (mortality or growth inhibition)
Experimental: Maize sprouts placed onto an agar layer in 24-well microtiter plates were treated with aqueous test solutions prepared from 10′000 ppm DMSO stock solutions by spraying. After drying, the plates were infested with L2 larvae (6 to 10 per well). The samples were assessed for mortality and growth inhibition in comparison to untreated samples 4 days after infestation.

Euschistus heros = Euschistus heros (neotropical brown stink bug) soybean leaf spray test; details: 120 h, spray on soybean leaves, N2 nymphs, 5 days after infestation, read-out: effect in at least one of the two categories (mortality or growth inhibition)
Experimental: Soybean leaves on agar in 24-well microtiter plates were sprayed with aqueous test solutions prepared from 10′000 ppm DMSO stock solutions. After drying the leaves were infested with N2 nymphs. The samples were assessed for mortality and growth inhibition in comparison to untreated samples 5 days after infestation.

Plutella xylostella [1] = experiment: Plutella xylostella (diamond back moth) artificial diet test, L2 larvae; details: 120 h, 5 days after infestation, read-out: effect in at least one of the two categories (mortality or growth inhibition)
Experimental: (§1) 24-well microtiter plates with artificial diet were treated with aqueous test solutions prepared from 10′000 ppm DMSO stock solutions by pipetting. After drying, the plates were infested with L2 larvae (10 to 15 per well). The samples were assessed for mortality and growth inhibition in comparison to untreated samples 5 days after infestation.

Myzus persicae = Myzus persicae (green peach aphid) feeding/contact activity; details: foliar, 144 h, spray on sunflower leaf discs, mixed ages, 6 days after infestation
Experimental: (§2) Sunflower leaf discs were placed onto agar in a 24-well microtiter plate and sprayed with aqueous test solutions prepared from 10′000 ppm DMSO stock solutions. After drying, the leaf discs were infested with an aphid population of mixed ages. The samples were assessed for mortality 6 days after infestation.

Spodoptera littoralis = Spodoptera littoralis (Egyptian cotton leaf worm) cotton leaf disc test; details: foliar, 72 h, spray on cotton leaf discs, L1 larvae, 3 days after infestation, read-out: control (mortality, anti-feeding effect or growth inhibition)
Experimental: Cotton leaf discs were placed onto agar in 24-well microtiter plates and sprayed with aqueous test solutions prepared from 10′000 ppm DMSO stock solutions. After drying the leaf discs were infested with five L1 larvae. The samples were assessed for mortality, anti-feeding effect, and growth inhibition in comparison to untreated samples 3 days after infestation. Control of Spodoptera littoralis by a test sample is given when at least one of the categories mortality, anti-feedant effect, and growth inhibition is higher than the untreated sample.

Tetranychus urticae = Tetranychus urticae (two-spotted spider mite) feeding/contact activity; details: foliar, 192 h, spray on bean leaf discs, mixed population (mobile stages), 8 days after infestation
Experimental: Bean leaf discs on agar in 24-well microtiter plates were sprayed with aqueous test solutions prepared from 10′000 ppm DMSO stock solutions. After drying the leaf discs were infested with a mite population of mixed ages. The samples were assessed for mortality on mixed population (mobile stages) 8 days after infestation.

Thrips tabaci = Thrips tabaci (onion thrips) feeding/contact activity; details: foliar, 144 h, spray on sunflower leaf discs, mixed ages, 6 days after infestation
Experimental: as §2, with “on” for “onto”, “in” for “in a”, “plates” for “plate”, “drying” for “drying,”, “a thrips” for “an aphid”

Plutella xylostella [2] = experiment: Plutella xylostella (diamond back moth) artificial diet test, eggs; details: 192 h, 8 days after infestation, read-out: effect in at least one of the two categories (mortality or growth inhibition)
Experimental: as §1, with “drying, Plutella eggs were pipetted through a plastic stencil onto a gel blotting paper and” for “drying,”, “plate was closed” for “plates were infested”, “it.” for “L2 larvae (10 to 15 per well).”, “8” for “5”

Cc1cc(C2=NO[C@@](c3cc(Cl)c(F)c(Cl)c3)(C(F)(F)F)C2)ccc1C(=O)N(C(=O)C1CC1)[C@H]1CON(S(=O)(=O)C(F)F)C1 [Compound A1, N-(cyclopropanecarbonyl)-4-[(5S)-5-(3,5-dichloro-4-fluoro-phenyl)-5-(trifluoromethyl)-4H-isoxazol-3-yl]-N-[(4R)-2-(difluoromethylsulfonyl)isoxazolidin-4-yl]-2-methyl-benzamide]
≥ 80%: percent effect (mortality or growth inhibition) at 200 ppm (Diabrotica balteata) | percent effect (mortality or growth inhibition) at 200 ppm (Euschistus heros) | percent effect (mortality or growth inhibition) at 200 ppm (Plutella xylostella [1]) | mortality at 200 ppm (Myzus persicae) | percent control (mortality, anti-feedant effect or growth inhibition) at 200 ppm (Spodoptera littoralis) | mortality at 200 ppm (Tetranychus urticae) | mortality at 200 ppm (Thrips tabaci)

Cc1cc(C2=NO[C@@](c3cc(Cl)c(F)c(Cl)c3)(C(F)(F)F)C2)ccc1C(=O)N(COC1CC1)[C@H]1CON(S(=O)(=O)C(F)F)C1 [Compound A2, N-(cyclopropoxymethyl)-4-[(5S)-5-(3,5-dichloro-4-fluoro-phenyl)-5-(trifluoromethyl)-4H-isoxazol-3-yl]-N-[(4R)-2-(difluoromethylsulfonyl)isoxazolidin-4-yl]-2-methyl-benzamide]
≥ 80%: percent effect (mortality or growth inhibition) at 200 ppm (Euschistus heros) | percent effect (mortality or growth inhibition) at 200 ppm (Plutella xylostella [2]) | percent control (mortality, anti-feedant effect or growth inhibition) at 200 ppm (Spodoptera littoralis)
